These results are taken from PubChem BioAssay (NCI).

Structures are written as SMILES.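 Compound exposure: 48 hours, 5 concentrations, 96-well plates. At the GI50, growth is halved. TGI denotes the concentration required for complete inhibition of growth.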

The assay concerns MDA-MB-468 breast. The experiment in a line: DTP human tumour cell line panel, 48 h.
Broadly, the GI50 is the concentration giving 50% growth inhibition. The term TGI denotes the concentration giving total growth inhibition. Higher therefore signals less potent growth arrest. In the case of `COc1cc(C(=O)/C=C/c2c(-c3ccc(F)cc3)nc3sc(C)cn23)cc(OC)c1OC`, the GI50 was 2380 nM and the concentration for total growth inhibition (TGI) is over 100000 nM.

Turning to `CCOCC(=O)N[C@H]1CCc2cc(OC)c(OC)c(OC)c2-c2ccc(SC)c(=O)cc21`, the GI50 was under 10 nM and the TGI is over 100000 nM.

For `COc1ccc(Nc2ccnc(NCCNc3ccnc4cc(Cl)ccc34)n2)cc1`, the GI50 is 997 nM and the TGI was determined as 3220 nM.

In the case of `O=C1c2ccccc2-c2nccc3cc(Cl)nc1c23`, the GI50 was 230 nM and the TGI came out at 602 nM.

Regarding `Cn1c(=O)c(Oc2cccc(F)c2)cc2cnc(NC3CCOCC3)nc21`, the GI50 is over 25000 nM and the TGI is over 25000 nM.

Regarding `CCOC(=O)c1c2c(n3ccc(NC(=O)OC(C)(C)C)cc13)C(=O)c1ncccc1C2=O`, the GI50 is 1330 nM and the TGI is 3820 nM.

On to `Nc1nc2c(c3ncccc13)C(c1ccc(Cl)c(Cl)c1)Cc1ncccc1-2` (centres undefined), for which the GI50 is 3250 nM and the TGI is 11200 nM.

For the molecule `COc1ccc(C(O)c2cc3c(N)c(C(=O)Nc4cccc(Cl)c4C)sc3nc2C)cc1` (centres undefined), the GI50 was 742 nM and the TGI stood at 1480 nM.

For `OCc1cccc(-c2ccc3ncc(-c4nc(NC5CC5)ncc4F)n3c2)c1`, the GI50 was 250 nM and the TGI worked out at 603 nM.

Regarding `N#Cc1ccc(/C=N/NC(=O)c2[nH]c3ccc(Br)cc3c2-c2ccccc2)s1`, the GI50 was 292 nM and the TGI stood at 10300 nM.

With `Cc1nc2cncc(C#Cc3cncc(C(=O)Nc4ccc(CN5CCN(C)CC5)c(C(F)(F)F)c4)c3)c2nc1C`, the GI50 is 949 nM and the TGI came to 7340 nM.

`CN(C)c1ccc(C(=O)c2ccc(N(C)C)c(N)c2)cc1N`: the GI50 is 781 nM and the TGI worked out at 4720 nM.

For `Nc1ccc(N=Nc2ccccc2)c(N)n1`, the GI50 is 16200 nM and the TGI stood at 60900 nM.

With `Nc1c(C(=O)c2cccc(-c3ccc[n+]([O-])c3)c2)cnn1-c1ccc(F)cc1F`, the GI50 was over 25000 nM and the TGI is over 25000 nM.

Regarding `O=C(Nc1ncc(Cc2ccccc2)s1)c1ccc2c(c1)OCCCO2`, the GI50 is 413 nM and the TGI is over 100000 nM.

On to `CNc1nc(C)c(-c2nc(Nc3cccc(S(N)(=O)=O)c3)ncc2F)s1`, for which the GI50 is 35.4 nM and the TGI was determined as 116 nM.

In the case of `COC(=O)Nc1nc2ccc(Oc3ccc(NC(=O)Nc4cccc(Br)c4)cc3)cc2[nH]1`, the GI50 is 1290 nM and the TGI was 6280 nM.

As to `NC(=O)C(Br)CBr` (centres undefined), the GI50 is 1460 nM and the TGI was 4350 nM.

Take `c1cc(C2CCCCC2)ccc1OCCCCCCN1CCNCC1`: the GI50 was 1910 nM and the TGI came to 3670 nM.

`COc1ccc(Nc2ncccc2/C=C/C(=O)c2cc(OC)c(OC)c(OC)c2)cc1`: the GI50 is 1150 nM and the TGI worked out at 2440 nM.

As for `CCN(CC)c1ccc(N=C2C=C(C(=O)Nc3ccc(S(C)(=O)=O)cc3)C(=O)c3ccccc32)c(C)c1`, the GI50 is over 100000 nM and the TGI was over 100000 nM.

Turning to `C=C1C(=O)O[C@H]2[C@H]1CC/C(CNS(=O)(=O)c1ccc3ccccc3c1)=C\CC[C@@]1(C)O[C@@H]21`, the GI50 was 363 nM and the TGI is 1620 nM.

`Cc1[nH]c(C(=O)Nc2ccc(C(=O)N3CCNCC3)cc2OC(C)C)c(Cl)c1Cl`: the GI50 is 1670 nM and the TGI was 3180 nM.

As to `Cc1ccccc1S(=O)(=O)N1[C@H](c2ccc(Cl)cc2)C(C(=O)N[C@@H](Cc2ccccc2)C(N)=O)=C[C@@H]1C(C)(C)C`, the GI50 is 4130 nM and the TGI was 12500 nM.

Turning to `CN(C)C(=S)NN=C(c1ccccn1)c1ccccn1`, the GI50 is under 10 nM and the TGI was 24000 nM.

`CCN(CC)CCOc1ccc(Nc2ncc3cc(-c4c(Cl)cccc4Cl)c(=O)n(CCOC)c3n2)cc1`: the GI50 is 1260 nM and the TGI turned out to be 3990 nM.

Turning to `NS(=O)(=O)c1ccc(C2C3=C(CCCC3=O)OC3=C2C(=O)c2ccccc2C3=O)cc1` (centres undefined), the GI50 was 231 nM and the TGI stood at 671 nM.

As to `CSc1ccc(-c2cc(-c3ccc(NC(=O)CCCN4CCCC4)cc3)nc(-c3ccc(NC(=O)CCCN4CCCC4)cc3)c2)cc1`, the GI50 was 1560 nM and the TGI was 3030 nM.

With `O=C1C2=C(C(=O)c3c(O)cccc31)C(c1ccco1)c1sc(=O)[nH]c1S2` (centres undefined), the GI50 was 2010 nM and the TGI was found to be 6590 nM.

`N#Cc1c2ccccc2c2n1-c1ccccc1OC(c1ccccc1)C2=O` (centres undefined): the GI50 is 3260 nM and the TGI was 13100 nM.

Consider `CC/C=C\C/C=C\C[C@H](O)C/C=C1/C(=O)C=C[C@H]1C/C=C\CCC(=O)OC`, for which the GI50 was 1560 nM and the TGI came to 4740 nM.

For `C=C1C(=O)O[C@H]2[C@H]1CC/C(CNC(=O)/C=C/c1cccc(OC)c1)=C\CC[C@@]1(C)O[C@@H]21`, the GI50 was 485 nM and the TGI worked out at 2130 nM.

Take `C[C@@H]1COCCN1c1nc(-c2cnc(N)cc2C(F)F)nc(N2[C@H](C)COC[C@@H]2C)n1`: the GI50 was 185 nM and the TGI was 1620 nM.

With `O=CN1N=C(c2ccc(Nc3ccnc4cc(Cl)ccc34)cc2)CC1c1ccccc1` (centres undefined), the GI50 was 975 nM and the TGI was 3150 nM.

With `CCCCCCCCCCCCCCCC(=O)OCC1OC(n2cnc3c(=S)nc(N)[nH]c32)C(OC(=O)CCCCCCCCCCCCCCC)C1OC(=O)CCCCCCCCCCCCCCC` (centres undefined), the GI50 was 1390 nM and the TGI is over 50000 nM.

Turning to `CNC(=O)c1c(NC(=O)c2cccc(C(F)(F)F)c2)sc2c1CCC(=O)C2`, the 50% growth inhibitory concentration (GI50) is 396 nM and the TGI was 2300 nM.

Take `O=C(CCCCCCNC(=O)C(O)(O)C(F)(F)F)Nc1ncc(-c2ccc(Br)cc2)s1`: the GI50 was 752 nM and the TGI turned out to be 5350 nM.

On to `Fc1ccc(C2CC(c3cccc(Nc4ccncc4)c3)=NN2c2cc(Cl)cc(Cl)c2)cc1` (centres undefined), for which the GI50 is 1760 nM and the TGI stood at 3720 nM.

`COc1ccc(C2=CC(c3cc(OC)c(OC)c(OC)c3)NC(=O)N2)cc1OC` (centres undefined): the GI50 is 3210 nM and the TGI came out at 15100 nM.

Turning to `COc1cc2c(c(OC)c1OC)-c1ccc(NNC(=S)N(Cc3cccc(C[N+](Cc4cccc(CNC56CC7CC(CC(C7)C5)C6)c4)(Cc4cccc(CNC56CC7CC(CC(C7)C5)C6)c4)Cc4cccc(CN(C(=S)NNc5ccc6c(cc5=O)[C@@H](NC(C)=O)CCc5cc(OC)c(OC)c(OC)c5-6)C56CC7CC(CC(C7)C5)C6)c4)c3)C34CC5CC(CC(C5)C3)C4)c(=O)cc1[C@@H](NC(C)=O)CC2` (some centres undefined), the GI50 was 657 nM and the TGI amounted to 1750 nM.

Regarding `CCOC(=O)c1cc2c(n1Cc1cc(OC)cc(OC)c1)-c1oncc1CCC2`, the GI50 is 47.4 nM and the TGI was over 100000 nM.

`O=c1[nH]cnc2c1nnn2C1OC(CO)C(O)C1O` (centres undefined): the GI50 was 577 nM and the TGI was 22000 nM.

On to `Nc1ccccc1NC(=O)CCCCCCC(=O)Nc1ccc2c(c1)/C(=C/c1ccc[nH]1)C(=O)N2`, for which the GI50 is 1830 nM and the TGI is over 100000 nM.

Take `COc1cc([C@@H]2c3cc4c(cc3C(Br)[C@H]3COC(=O)[C@H]23)OCO4)cc(OC)c1OC` (some centres undefined): the GI50 is 175 nM and the TGI is 625 nM.

Take `CCCCCCOc1ccc(/C=N/NC(N)=S)cc1`: the GI50 is 6390 nM and the TGI is 32700 nM.

On to `N#Cc1cccc(C(=O)c2cnn(-c3ccc(F)cc3)c2N)c1`, for which the GI50 was over 25000 nM and the TGI was over 25000 nM.

Turning to `CCc1ccc(-c2ccc(=O)n(-c3ccc(S(N)(=O)=O)cc3)n2)cc1`, the GI50 is 3180 nM and the TGI is over 100000 nM.

Take `CC1=C(C(=O)Nc2ccc3[nH]ncc3c2)C(c2ccc(F)cc2)NC(=O)N1` (centres undefined): the GI50 was over 25000 nM and the TGI is over 25000 nM.

On to `O=S1(=O)N(Cc2ccccc2)[C@@H](Cc2ccccc2)C2O[C@H]2[C@H](Cc2ccccc2)N1Cc1ccccc1` (some centres undefined), for which the GI50 is 274 nM and the concentration for total growth inhibition (TGI) was over 7500 nM.

As for `COc1cc2c(cc1OCCCOC1=C=C=C(c3ccc4c(c3)c3cc(-c5ccc(OCCCOc6cc7c(cc6OC)C(=O)N6CCC[C@H]6C=N7)cc5)ccc3n4S(=O)(=O)c3ccc(C)cc3)C=C1)N=C[C@@H]1CCCN1C2=O`, the GI50 is 1040 nM and the TGI was 3040 nM.

Take `COc1ccc(-c2nsc3c2NC(=O)CC3c2ccc3c(c2)OCO3)cc1` (centres undefined): the GI50 was 612 nM and the TGI came to 25900 nM.

Take `CCCCCCCCCCCCCC[P+](CCCCCC)(CCCCCC)CCCCCC`: the GI50 is 36.6 nM and the TGI is 175 nM.
